Results as given in patent publication US12576033B2, “Spray-dried formulation of a pyridazinone TRPC5 inhibitor” (GFB (ABC), LLC, priority 2019, dated 2026).

How the values were obtained:
Assay type in all cases: physicochemical
[1] = MDSC thermal analysis (Tg)
Experimental: MDSC was performed using a TA Instruments Discovery DSC2500 differential scanning calorimeter equipped with a TA instruments Refrigerated Cooling System 90. MDSC was used to measure thermodynamic events and characteristics of Compound 1 API and subsequent SDIs. Events observed include the glass transition temperature (Tg), cold crystallization (Tc, defined as a crystallization event at a temperature lower than the melt temperature) and melting temperature (Tm). SDI samples were placed in non-hermetic aluminum pans and heated at a constant rate of 2.0° C./min over a 0-200° C. temperature range. The system was purged by nitrogen flow at 50 mL/min to ensure inert atmosphere through the course of measurement. […] The resulting amorphous API was analyzed by modulated DSC up to 265° C. […]
Thermal properties including melting temperature (Tm), glass transition temperature (Tg) and crystallization temperature (Tc) of Compound 1 crystalline Form H (anhydrous/solvate free) were measured by MDSC. […] The Tg was measured via a melt-quench technique, heating Compound 1 past its melting temperature and rapidly cooled in liquid nitrogen to trap the molten material in an amorphous state. The resulting sample was analyzed by MDSC and a Tg of 130° C. was observed (FIGS. 1A-B/Table 9) with no observed crystallization peaks or clear melting events in the subsequent amorphous ramp up to 275° C. […]

[2] = Visual solubility in common spray drying solvents
Experimental: Organic solubility of Compound 1 was determined visually in common spray drying solvents (Table 10) and Compound 1 lot AC5313-058P1 was utilized. […] When removed from heat API crashes out after 5 minutes. Solution (% w/w) was then prepared at 2.0% Compound 1 and heated to 40° C. where solids dissolved immediately. The 2.0% solution was then removed from heat where API appeared to crash out after ˜2 hours.

[3] = Two stage gastric transfer non-sink dissolution test (0.1N HCl/FaSSIF)
Experimental: In-vitro drug dissolution performance for each SDI is evaluated by Patheon's two stage ‘gastric transfer’ non-sink dissolution test (Table 8), which simulates pH and bile salt concentrations for both gastric and intestinal exposure in a simple to perform assay. Pre-weighed SDI powder is briefly suspended in media (e.g. by 10 sec vortex mixing with 4.0 mL media) and transferred to a pre-heated (37° C.) volume of 50 mL of 0.1N HCl(aq) (simulated gastric fluid or SGF, pH˜1.0, without pepsin or bile salts), in a USP Type 2 mini-vessel (100 mL total vessel volume) while stirring (paddles) at 100 rpm. After 30 minutes of gastric pH exposure, an equal volume of PBS buffered, 2× concentrated fasted-state simulated intestinal fluid (FaSSIF) is added to the SGF, resulting in a final pH of 6.8 in FaSSIF (100 mM PBS containing 2.24 mg/mL SIF powder (original) (Biorelevant Inc.) in a total volume of 100 mL. Aliquiots (1.0 mL) of dissolution media are taken at selected time-points before and after the simulated gastric transfer, spun-down (13000 rpm) to pellet out undissolved solids, and the supernatant sampled and further diluted in an appropriate diluent to determine API total drug concentration (e.g. free and colloidal/polymer-bound drug in solution) utilizing a suitable HPLC method. Additional centrifugation and filtration was performed using 10K molecular weight cutoff filters to remove polymer bound aggregates and colloids. The resulting filtrate of free drug consists of drug in solution and micelles. The volume of FaSSIF added is adjusted to account for the sampling volume removed prior to gastric transfer (typically 4×1.0 mL). Initial Compound 1 API measurements and SDI dissolution samples were determined utilizing HPLC.
The dissolution performance of the SDI material and crystalline Compound 1 was tested in Patheon's non-sink dissolution test (FIG. 6 and Table 15). The dissolution test is used to measure the supersaturation of drug above the bulk crystalline Compound 1 solubility in biorelevant intestinal media (FaSSIF) after 30 minutes exposure to a low-pH environment. […]

[4] = 60:40 DCM:Methanol, clear solution when heated to 40° C.
[5] = 80:20 DCM:Methanol, clear solution when heated to 40° C.
[6] = 90:10 DCM:Methanol, clear solution when heated to 40° C.

With O=c1[nH]ncc(N2CCc3c(ncnc3Oc3ccc(F)cc3C(F)(F)F)C2)c1Cl [Compound 1, 4-chloro-5-(4-(4-fluoro-2-(trifluoromethyl)phenoxy)-5,8-dihydropyrido[3,4-d]pyrimidin-7(6H)-yl)pyridazin-3(2H)-one] the Tg ([1]; amorphous API by melt-quench, MDSC) was 130 °C, the Tm/Tg ratio ([1]; indicating moderate physical stability) was 1.32 and the “Compound 1 Visual Solubility” value ([2]; 50:50 DCM:Methanol) was >1.0 wt .%. For the same compound, the “Observation (visual solubility)” value ([2]; 50:50 DCM:Methanol) was “Insoluble”, the “Compound 1 Visual Solubility” value [2, 4] was 2.0-3.0 wt .% and the “Observation (visual solubility)” value [2, 4] was “Soluble^1”. The “Compound 1 Visual Solubility” value [2, 5] was 1.0-1.5 wt .%, the “Observation (visual solubility)” value [2, 5] was “Soluble^1” and the “Compound 1 Visual Solubility” value [2, 6] was 1.0-1.5 wt .%. For the same compound, the “Observation (visual solubility)” value [2, 6] was “Soluble^1”, the “Compound 1 Visual Solubility” value ([2]; 95:5 Acetone:Water) was >1.0 wt .% and the “Observation (visual solubility)” value ([2]; 95:5 Acetone:Water) was “Insoluble”. For the same compound, the “Compound 1 Visual Solubility” value ([2]; Acetone) was >1.0 wt .%, the “Observation (visual solubility)” value ([2]; Acetone) was “Insoluble” and the “Compound 1 Visual Solubility” value ([2]; Methanol) was >1.0 wt .%. For the same compound, the “Observation (visual solubility)” value ([2]; Methanol) was “Insoluble”, the “Compound 1 Visual Solubility” value ([2]; Methlyene Chloride (DCM)) was >1.0 wt .% and the “Observation (visual solubility)” value ([2]; Methlyene Chloride (DCM)) was “Insoluble”. For the same compound, the “Compound 1 Visual Solubility” value ([2]; Methyl Ethyl Ketone (MEK)) was >1.0 wt .%, the “Observation (visual solubility)” value ([2]; Methyl Ethyl Ketone (MEK)) was “Insoluble” and the “Compound 1 Visual Solubility” value ([2]; Tetrahydrofuran (THF)) was >1.0 wt .%. The “Observation (visual solubility)” value ([2]; Tetrahydrofuran (THF)) was “Insoluble”, the “maximum active loading in solution” value ([2]; heated (40° C.) 60:40 DCM:Methanol, % w/w) was 2.0% and the “Total Drug AUC35-210 FaSSIF” value ([3]; area under the curve after transfer to FaSSIF from 35 to 210 minutes) was 600 min * μgA/mL. The “Total Drug C210” value ([3]; drug concentration at 180 minutes after transfer to FaSSIF) was 3.5 μgA/mL and the “Increase in AUC over API AUC” value ([3]; non-sink dissolution, FaSSIF) was 0.4.
